Test results as given in PMC9688808, “Discovery of Novel Lin28 Inhibitors to Suppress Cancer Cell Stemness” (Cancers, 2022).

Tests used:
DUNE cells [1] = assay: FACS analysis of CD44 and CD133 positive cell populations; assay type: cell-based; settings: 20 uM, 48 h; for % of CD133+ cells: paired vehicle 60.8–65.4; for % CD44+ cells: paired vehicle 84.7–94.9
Experimental: (§1) There are several standard molecular techniques, including real-time qPCR, flow cytometry, cell proliferation, colony formation, and immunoblotting assays, that have been reported previously by our lab.
(§2) Figure 7 Lin28 inhibitors block CSC phenotypes of cancer cells. (A) FACS analysis using CD44 and CD133 antibodies detected CSC cell populations from DUNE or DUNE (KO) cells treated with either vehicle or 20 uM of Ln7, Ln15, and Ln115 for 48 h. (B) DUNE, DUNE (KO), and IGROV1 cell proliferation were measured in the presence of 20 uM of Ln7, Ln15, and Ln115. (C) Colony formation assays (colonies >[…] were counted) measured the suppressive effects of Ln7, Ln15, and Ln115 at the concentration of 20 uM. p-value ≤ 0.01—(**); ≤0.001—(***).

DUNE cells [2] = assay: Colony formation assay, DUNE cells; assay type: cell-based; settings: 20 uM (Figure 7C)
Experimental: as §1, §2
Figure S4. A. Colony formation assays: DUNE cells were seeded in 500 cells/well. Chemicals were added one day after cell seeding (n=3 wells/chemical). Medium with chemical at the concentration of 60uM was changed every four days for 14 days. […]
0.005% crystal violet staining for 2 hours. ImageJ was used to analyze colony size and numbers (circularity was set at 0.5 -1, which is equivalent to 50uM in size). Only colonies larger than […]
50uM were countered. […]
(1 picture or pasted object on this page, not shown here)

Lin28B ZKD [3] = biological target: T1, Lin28B ZKD (Homo sapiens, UniProt Q6ZN17); assay: Bio-layer interferometry (BLI) with Avi-tagged Lin28B ZKD; assay type: binding; settings: for BLI binding to Lin28 ZKD: up to 100 µM
T1 construct: His-tagged human Lin28B ZKD (aa110-174); His-tag; made in house; host or cells: Escherichia coli BL21
T1 sequence (Q6ZN17 110-174): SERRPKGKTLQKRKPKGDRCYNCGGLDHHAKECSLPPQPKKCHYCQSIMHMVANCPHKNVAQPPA
Experimental: BLI assays were performed as we previously reported to quantify the direct and reversible interactions between small molecules and Lin28B ZKD by using OctetRED (ForteBio, Bohemia, NY, USA). Lin28B was thus expressed with His-tag and a biotinylated AviTag sequence ([…]) at its N-terminus in Escherichia coli BL21 cells. Purified Lin28B ZKD (50 ug/mL) was bound to the super-streptavidin sensors for 1 h at room temperature. Sensors were next blocked with biocytin, washed, and then dipped into wells containing increasing concentrations of the tested inhibitors in assay buffer (20 mM N-2-hydroxyethylpiperazine-N0-2-ethanesulfonic acid (HEPES), 150 mM NaCl, 500 uM tris(2-carboxyethyl) phosphine (TCEP), and 1% dimethylsulfoxide (DMSO)). Association for 200 s and dissociation in assay buffer for 100 s were recorded for each well. Data analysis was done using the OctetRED software (ForteBio, Bohemia, NY, USA).
(§3) Figure 3 Lin28 inhibitors block the interaction between Lin28B ZKD and Let-7. (A) EMSA used 10 nM of IR800DyeCWN-labeled let-7 probe (lane 1), 0.5 uM Lin28B ZKD protein with 10 nM of labeled Let-7 probe (lane 2), or Lin28B ZKD, labeled Let-7 probe and 100× non-labelled competitor probe (lane 3). EMSA used Lin28B ZKD, labeled Let-7 probe, and 100–1200 uM of indicated compounds (lanes 4–10). (B) FP assays were performed by using 10 uM of Lin28B ZKD and 1 nM of FAM-labeled Let-7 probe and 1 nM–1000 uM of compounds. (C) Bio-layer interferometry (BLI) assays were performed using 0–25 uM of Ln115 with Avi-tagged Lin28B ZKD protein. (D) Chemical structures of the three lead compounds were shown.
To validate that these molecules indeed directly bind to the ZKD domain of Lin28 in a reversible and dose-dependent manner, we used the biolayer interferometry (BLI) assay. Biotinylated Avi-tagged Lin28 ZKD was immobilized onto streptavidin biosensors. The sensor plates were then dipped in successive wells containing increasing concentrations of Ln7, Ln 15, or Ln115. […]

Lin28A ZKD = biological target: T2, Lin28A ZKD (Homo sapiens, UniProt Q9H9Z2); assay: EMSA, Lin28A ZKD–Let-7 complex; assay type: binding; settings: compounds 100–1200 uM
T2 construct: Lin28A ZKD (aa121-187); His-tag; made in house; host or cells: Escherichia coli BL21
T2 sequence (Q9H9Z2 121-187): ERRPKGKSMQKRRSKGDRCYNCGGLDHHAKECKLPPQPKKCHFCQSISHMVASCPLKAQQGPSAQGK
Experimental: (§4) EMSA followed the standard protocols we published with minor modifications. An IRDye800CWN-labeled Let-7 RNA probe was purchased from IDT (Coralville, IA, USA). Lin28B or Lin28A proteins were incubated with […] of probe in a standard 20 uL EMSA reaction in a reaction buffer containing 20 mM HEPES-NaOH, pH 7.4, 2 mM DTT, 3 mM MgCl2, 0.05% NP-40, protease inhibitors, and 0.1 ug poly[dI:dC]. After incubation for 30 min at 37 °C, reactions were loaded onto 4% non-denatured polyacrylamide gel in 0.5× TBE buffer. The RNA oligo bands were visualized by using the Li-Cor Odyssey 9120 Infrared Imaging System.
Figure 5 Lin28 inhibitors block the Lin28A isoform. (A) EMSA used 10 nM of IR800DyeCWN-labeled Let-7 probe (lane 1), 0.5 uM Lin28A ZKD protein with 10 nM of labeled Let-7 probe (lane 2), or Lin28A ZKD, labeled Let-7 probe and 100× non-labeled competitor probe (lane 3). EMSA used Lin28A ZKD, labeled Let-7 probe, and 100–1200 uM of indicated compounds (lanes 4–10). (B) FP assays were performed by using 10 uM of Lin28A ZKD, 1 nM of FAM-labeled Let-7 probe, and 1 nM–200 uM of compounds. (C) Lin28A-positive IGROV1 cells were treated with 20 uM of the indicated compound for 48 h. Real-time qPCR measured RNA levels of Let-7d, SOX2, and HMGA2. Three biological replicates were performed and all results are presented as mean +/− SD. p-value ≤ 0.05—(*); ≤0.01—(**); ≤0.001—(***).

Lin28B ZKD [4] = biological target: T1, Lin28B ZKD; assay: EMSA, Lin28B ZKD–Let-7 complex; assay type: binding; settings: compounds 0–1200 uM
Experimental: as §4, §3

| SMILES | CD44- and CD133-positive cell populations (DUNE cells [1]) | % of CD133+ cells (DUNE cells [1]) [%] | % CD44+ cells (DUNE cells [1]) [%] | formation of cancer cell colonies (DUNE cells [2]) | Kd (Lin28B ZKD [3]; 0–25 uM Ln115, Avi-tagged Lin28B ZKD, read-out: estimated KD (BLI)) [µM] | concentration that inhibits formation of Lin28A ZKD–Let-7 complex in EMSA (Lin28A ZKD) [µM] | BLI binding to Lin28 ZKD (Lin28B ZKD [3]) | concentration that disrupts ZKD–Let-7 complex in EMSA (Lin28B ZKD [4]) [µM] | inhibition of ZKD–Let-7 complex in EMSA (Lin28B ZKD [4]) | suppressive effect on colony formation (DUNE cells [2]; colonies >50 uM counted) |
| --- | --- | --- | --- | --- | --- | --- | --- | --- | --- | --- |
| O=c1cccc(-c2nc3cc(F)c(O)cc3c(=O)[nH]2)[nH]1 [Ln115] | significant reductions | 30 ± 4.5 | 54.3 ± 6.0 | strongly suppressed | 60 ± 4 | 100 to 400 | – | – | – | – |
| CCc1cc(=O)[nH]c(Nc2cc(Cl)ccc2O)n1 [Ln7] | significant reductions | 37.1 ± 4.2 | 61.6 ± 3.2 | strongly suppressed | – | > 1200 | did not show any binding | > 1000 | – | – |
| CC(=O)N(C)c1cccc(-c2ccc3nnc(C)n3n2)c1 [compound 1632, reference compound] | – | – | – | strongly suppressed | – | > 1200 | – | – | – | – |
| CCOc1cccc2c1N[C@@H](c1ccc(C(=O)O)cc1)[C@H]1CC=C[C@@H]21 [Li71, reference compound] | – | – | – | strongly suppressed | – | 100 to 400 | – | – | robust inhibition | – |
| O=c1[nH]c(Nc2ccccc2O)cs1 [Ln15] | significant reductions | 14.7 ± 2.1 | 70.1 ± 4.6 | strongly suppressed | – | 100 to 400 | non-specific binding to the sensors | 400 | – | ~ 90% |
